Columns and labels:
Homo sapiens = species: Homo sapiens; assay: Ratio of IC50 for glucocorticoid receptor to IC50 for progesterone receptor
Progesterone receptor = target: T1, Progesterone receptor (Homo sapiens, UniProt P06401); assay: Antagonist activity at progesterone receptor expressed in human T47D cells assessed as inhibition of promegestone-induced alkaline phosphatase activity; type: functional, cell-based
T1 sequence (P06401 whole entry): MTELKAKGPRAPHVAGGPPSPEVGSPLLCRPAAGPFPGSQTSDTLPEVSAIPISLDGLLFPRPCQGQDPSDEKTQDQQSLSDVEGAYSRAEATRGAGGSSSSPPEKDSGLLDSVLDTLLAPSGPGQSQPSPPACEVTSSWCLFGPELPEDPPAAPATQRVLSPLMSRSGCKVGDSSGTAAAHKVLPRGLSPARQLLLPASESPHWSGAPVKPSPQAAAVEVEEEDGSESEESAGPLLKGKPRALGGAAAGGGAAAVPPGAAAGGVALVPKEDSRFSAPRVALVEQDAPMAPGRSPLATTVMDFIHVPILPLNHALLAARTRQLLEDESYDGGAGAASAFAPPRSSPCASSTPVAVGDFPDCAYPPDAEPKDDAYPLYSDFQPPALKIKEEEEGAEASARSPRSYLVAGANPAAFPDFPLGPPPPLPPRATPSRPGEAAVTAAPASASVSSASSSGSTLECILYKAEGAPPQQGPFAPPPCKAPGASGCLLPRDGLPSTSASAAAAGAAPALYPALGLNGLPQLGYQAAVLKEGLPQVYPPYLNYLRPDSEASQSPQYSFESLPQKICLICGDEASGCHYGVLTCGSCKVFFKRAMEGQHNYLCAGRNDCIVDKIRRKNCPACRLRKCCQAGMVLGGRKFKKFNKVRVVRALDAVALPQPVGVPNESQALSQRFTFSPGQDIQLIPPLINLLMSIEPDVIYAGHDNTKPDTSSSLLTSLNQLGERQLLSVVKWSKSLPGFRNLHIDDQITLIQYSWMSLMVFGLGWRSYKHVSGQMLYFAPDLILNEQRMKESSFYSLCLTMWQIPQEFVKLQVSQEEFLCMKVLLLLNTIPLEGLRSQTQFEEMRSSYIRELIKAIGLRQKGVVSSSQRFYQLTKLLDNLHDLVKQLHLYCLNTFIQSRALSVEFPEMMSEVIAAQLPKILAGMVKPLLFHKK

Glucocorticoid receptor = target: T2, Glucocorticoid receptor (Homo sapiens, UniProt P04150); assay: Antagonist activity at glucocorticoid receptor expressed in A549 cells assessed as inhibition of corticoid-induced gene transcription by luciferase reporter gene assay; type: functional, cell-based
T2 sequence (P04150 whole entry): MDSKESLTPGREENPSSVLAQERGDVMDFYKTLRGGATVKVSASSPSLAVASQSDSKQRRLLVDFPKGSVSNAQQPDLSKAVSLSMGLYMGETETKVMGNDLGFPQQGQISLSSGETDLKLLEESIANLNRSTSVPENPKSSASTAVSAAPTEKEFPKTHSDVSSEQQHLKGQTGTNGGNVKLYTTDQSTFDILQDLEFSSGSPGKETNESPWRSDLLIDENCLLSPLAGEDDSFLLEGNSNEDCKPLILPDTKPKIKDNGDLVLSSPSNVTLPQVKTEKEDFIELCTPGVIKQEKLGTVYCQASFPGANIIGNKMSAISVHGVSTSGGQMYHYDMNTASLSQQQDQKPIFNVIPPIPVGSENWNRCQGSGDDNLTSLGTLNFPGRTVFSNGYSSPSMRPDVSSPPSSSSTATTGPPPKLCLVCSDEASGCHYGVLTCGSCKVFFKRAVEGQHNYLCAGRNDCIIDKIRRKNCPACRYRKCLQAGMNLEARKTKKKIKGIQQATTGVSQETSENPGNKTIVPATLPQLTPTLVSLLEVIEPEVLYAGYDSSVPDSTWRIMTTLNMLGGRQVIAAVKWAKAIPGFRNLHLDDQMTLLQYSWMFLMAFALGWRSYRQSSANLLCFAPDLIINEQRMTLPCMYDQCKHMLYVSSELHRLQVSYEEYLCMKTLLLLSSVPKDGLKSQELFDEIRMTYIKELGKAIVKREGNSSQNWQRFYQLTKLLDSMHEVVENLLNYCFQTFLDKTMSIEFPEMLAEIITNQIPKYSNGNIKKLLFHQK

Work on `C=C1OC(C)=N[C@]12CC[C@H]1[C@@H]3CCC4=CC(=O)CCC4=C3[C@@H](c3ccc(N(C)C)cc3)C[C@@]12C` yielded a Ratio IC50 (Homo sapiens) of 130, an IC50 (Progesterone receptor) of 0.63 nM and an IC50 (Glucocorticoid receptor) of 82 nM.

With `C=C1OC(C)=N[C@]12CC[C@H]1[C@@H]3CCC4=CC(=O)CCC4=C3[C@@H](c3ccc(OC)c(F)c3)C[C@@]12C` the Ratio IC50 (Homo sapiens) was 140, the IC50 (Progesterone receptor) was 4.6 nM and the IC50 (Glucocorticoid receptor) was 660 nM.

Work on `C=C1OC(CC)=N[C@]12CC[C@H]1[C@@H]3CCC4=CC(=O)CCC4=C3[C@@H](c3ccc(N(C)C)cc3)C[C@@]12C` yielded a Ratio IC50 (Homo sapiens) of 24, an IC50 (Progesterone receptor) of 0.98 nM and an IC50 (Glucocorticoid receptor) of 23 nM.

For `C=C1OC(CC)=N[C@]12CC[C@H]1[C@@H]3CCC4=CC(=O)CCC4=C3[C@@H](c3ccc(OC)c(F)c3)C[C@@]12C`, the Ratio IC50 (Homo sapiens) was > 10000, the IC50 (Progesterone receptor) was 1 nM and the IC50 (Glucocorticoid receptor) was > 10000 nM.

`C=C1OC(C)=N[C@]12CC[C@H]1[C@@H]3CCC4=CC(=O)CCC4=C3[C@@H](c3ccc(C(C)=O)cc3)C[C@@]12C` was tested, and the Ratio IC50 (Homo sapiens) was 780, the IC50 (Progesterone receptor) was 0.59 nM and the IC50 (Glucocorticoid receptor) was 460 nM.

Work on `C=C1OC=N[C@]12CC[C@H]1[C@@H]3CCC4=CC(=O)CCC4=C3[C@@H](c3ccc(N(C)C)cc3)C[C@@]12C` yielded a Ratio IC50 (Homo sapiens) of 30, an IC50 (Progesterone receptor) of 18 nM and an IC50 (Glucocorticoid receptor) of 540 nM.

`C=C1OC(CC)=N[C@]12CC[C@H]1[C@@H]3CCC4=CC(=O)CCC4=C3[C@@H](c3ccc(C(C)=O)cc3)C[C@@]12C` gave a Ratio IC50 (Homo sapiens) of 620, an IC50 (Progesterone receptor) of 0.34 nM and an IC50 (Glucocorticoid receptor) of 210 nM.

`C=C1OC=N[C@]12CC[C@H]1[C@@H]3CCC4=CC(=O)CCC4=C3[C@@H](c3ccc(C(C)=O)cc3)C[C@@]12C` showed a Ratio IC50 (Homo sapiens) of 171, an IC50 (Progesterone receptor) of 82 nM and an IC50 (Glucocorticoid receptor) of 14000 nM.

Source: ChEMBL document CHEMBL1140481, “Synthesis and identification of novel 11beta-aryl-4',5'-dihydrospiro[estra-4,9-diene-17beta,4'-oxazole] analogs with dissociated antiprogesterone activities” (Bioorg Med Chem Lett, 2007)
